Measured values as given in patent publication US20210000838A1, “COMBINATION THERAPY” (MEI Pharma, Inc., priority 2018, published 2021).

Legend:
Type in all cases: cell-based
DOHH-2 cells = test: ATPLite growth inhibition assay, DOHH-2 cells; conditions: single agent, FIG. 10
From the text: (§1) Cells were thawed from a liquid nitrogen preserved state. […] Assay plates were accepted if they pass the following quality control standards: relative luciferase values were consistent throughout the entire experiment, Z-factor scores were greater than 0.6, untreated/vehicle controls behaved consistently on the plate. […]

NU-DHL-1 cells = test: ATPLite growth inhibition assay, NU-DHL-1 cells; conditions: single agent, FIG. 10
From the text: as §1

Pfeiffer cells = test: ATPLite growth inhibition assay, Pfeiffer cells; conditions: single agent, FIG. 10
From the text: as §1

[1] = test system: panel of 8 DLBCL cell lines; test: ATPLite growth inhibition assay across panel of 8 DLBCL cell lines; conditions: single agent, FIG. 9
OCI-Ly19 cells = test: ATPLite growth inhibition assay, OCI-Ly19 cells; conditions: single agent, FIG. 10
From the text: as §1

SU-DHL-10 cells = test: ATPLite growth inhibition assay, SU-DHL-10 cells; conditions: single agent, FIG. 10
From the text: as §1

OCI-Ly3 cells = test: ATPLite growth inhibition assay, OCI-Ly3 cells; conditions: single agent, FIG. 10
From the text: as §1

CN1CCC(c2ccccc2CC(C)(C)Nc2nc(N3CCOCC3)nc(-n3c(C(F)F)nc4ccccc43)n2)CC1 [Compound I, 4-(2-(difluoromethyl)-1H-benzo[d]imidazol-1-yl)-N-(2-methyl-1-(2-(1-methylpiperidin-4-yl)phenyl)propan-2-yl)-6-morpholino-1,3,5-triazin-2-amine]
growth inhibition effect type (DOHH-2 cells): cytotoxic effects | growth inhibition effect type (NU-DHL-1 cells): sub-cytostatic effects | growth inhibition effect type (Pfeiffer cells): sub-cytostatic effects | growth inhibition levels ([1]; all cell lines): > 50% | GI50 ([1]; median across cell line panel, 72 hours): 1730 nM | growth inhibition effect type (OCI-Ly19 cells): cytotoxic effects | growth inhibition effect type (SU-DHL-10 cells): sub-cytostatic effects | growth inhibition effect type (OCI-Ly3 cells): cytotoxic effects
